Test results as given in ChEMBL document CHEMBL1140656, “Design, synthesis, and evaluation of 3,4-disubstituted pyrazole analogues as anti-tumor CDK inhibitors” (Bioorg Med Chem Lett, 2007).

Legend:
A-375 = assay: Antiproliferative activity against human A375 cells; assay type: functional, cell-based
[1] = target: Vascular endothelial growth factor receptor 2 (Homo sapiens, UniProt P35968); assay: Inhibition of VEGFR2
Aurora kinase A = target: T1, Aurora kinase A (Homo sapiens, UniProt O14965); assay: Inhibition of aurora-A
T1 sequence (O14965 whole entry): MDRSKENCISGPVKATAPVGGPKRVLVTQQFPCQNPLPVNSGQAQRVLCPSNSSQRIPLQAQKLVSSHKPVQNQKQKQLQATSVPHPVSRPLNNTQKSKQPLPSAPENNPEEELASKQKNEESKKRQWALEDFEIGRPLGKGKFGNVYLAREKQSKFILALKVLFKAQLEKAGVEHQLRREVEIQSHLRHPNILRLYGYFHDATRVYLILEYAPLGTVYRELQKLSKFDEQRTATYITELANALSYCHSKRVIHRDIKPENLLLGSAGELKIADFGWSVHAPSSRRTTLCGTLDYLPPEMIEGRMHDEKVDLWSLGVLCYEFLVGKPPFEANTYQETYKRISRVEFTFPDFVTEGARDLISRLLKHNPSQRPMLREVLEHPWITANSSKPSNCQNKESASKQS

HeLa = assay: Antiproliferative activity against human HeLa cells; assay type: functional, cell-based
[2] = Inhibition of CDK1/cyclin B; set-up: species or system Homo sapiens
HCT-116 = assay: Antiproliferative activity against human HCT116 cells; assay type: functional, cell-based
[3] = target: Receptor tyrosine-protein kinase erbB-2 (Homo sapiens, UniProt P04626); assay: Inhibition of HER2
Chain of Receptor tyrosine-protein kinase erbB-2 (P04626 whole entry): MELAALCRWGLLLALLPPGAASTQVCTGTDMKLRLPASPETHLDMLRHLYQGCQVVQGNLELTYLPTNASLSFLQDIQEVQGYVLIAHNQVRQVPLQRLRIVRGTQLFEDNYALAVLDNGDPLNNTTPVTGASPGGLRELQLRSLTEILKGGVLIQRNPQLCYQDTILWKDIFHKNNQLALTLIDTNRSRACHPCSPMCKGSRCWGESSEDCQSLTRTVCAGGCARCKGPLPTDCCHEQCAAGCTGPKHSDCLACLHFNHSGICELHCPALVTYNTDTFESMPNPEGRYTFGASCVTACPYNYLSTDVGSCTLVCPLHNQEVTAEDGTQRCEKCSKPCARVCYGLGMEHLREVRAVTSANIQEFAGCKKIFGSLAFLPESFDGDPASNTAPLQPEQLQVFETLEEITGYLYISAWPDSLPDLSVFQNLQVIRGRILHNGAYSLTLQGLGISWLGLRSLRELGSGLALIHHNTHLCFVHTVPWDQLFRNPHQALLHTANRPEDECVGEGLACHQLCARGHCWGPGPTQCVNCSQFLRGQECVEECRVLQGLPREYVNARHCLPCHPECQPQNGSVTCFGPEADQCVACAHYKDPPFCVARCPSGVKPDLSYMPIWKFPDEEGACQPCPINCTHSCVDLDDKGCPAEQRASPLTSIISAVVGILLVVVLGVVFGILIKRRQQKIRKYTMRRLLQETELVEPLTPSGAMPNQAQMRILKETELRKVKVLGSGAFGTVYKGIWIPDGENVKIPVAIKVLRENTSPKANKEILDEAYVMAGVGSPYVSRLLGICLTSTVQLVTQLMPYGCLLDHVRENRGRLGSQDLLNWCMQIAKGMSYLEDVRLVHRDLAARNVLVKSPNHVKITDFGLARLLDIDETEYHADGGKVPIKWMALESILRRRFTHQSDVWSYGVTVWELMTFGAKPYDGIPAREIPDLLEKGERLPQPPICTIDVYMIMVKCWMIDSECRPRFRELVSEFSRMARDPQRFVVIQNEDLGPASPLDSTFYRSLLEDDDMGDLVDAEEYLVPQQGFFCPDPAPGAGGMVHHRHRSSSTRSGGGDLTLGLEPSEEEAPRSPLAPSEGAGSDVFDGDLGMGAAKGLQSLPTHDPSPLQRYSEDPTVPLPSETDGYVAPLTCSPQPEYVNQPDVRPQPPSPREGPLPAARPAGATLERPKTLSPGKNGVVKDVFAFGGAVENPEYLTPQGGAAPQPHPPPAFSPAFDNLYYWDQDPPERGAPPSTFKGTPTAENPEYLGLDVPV

Chain of Vascular endothelial growth factor receptor 2 (P35968 whole entry): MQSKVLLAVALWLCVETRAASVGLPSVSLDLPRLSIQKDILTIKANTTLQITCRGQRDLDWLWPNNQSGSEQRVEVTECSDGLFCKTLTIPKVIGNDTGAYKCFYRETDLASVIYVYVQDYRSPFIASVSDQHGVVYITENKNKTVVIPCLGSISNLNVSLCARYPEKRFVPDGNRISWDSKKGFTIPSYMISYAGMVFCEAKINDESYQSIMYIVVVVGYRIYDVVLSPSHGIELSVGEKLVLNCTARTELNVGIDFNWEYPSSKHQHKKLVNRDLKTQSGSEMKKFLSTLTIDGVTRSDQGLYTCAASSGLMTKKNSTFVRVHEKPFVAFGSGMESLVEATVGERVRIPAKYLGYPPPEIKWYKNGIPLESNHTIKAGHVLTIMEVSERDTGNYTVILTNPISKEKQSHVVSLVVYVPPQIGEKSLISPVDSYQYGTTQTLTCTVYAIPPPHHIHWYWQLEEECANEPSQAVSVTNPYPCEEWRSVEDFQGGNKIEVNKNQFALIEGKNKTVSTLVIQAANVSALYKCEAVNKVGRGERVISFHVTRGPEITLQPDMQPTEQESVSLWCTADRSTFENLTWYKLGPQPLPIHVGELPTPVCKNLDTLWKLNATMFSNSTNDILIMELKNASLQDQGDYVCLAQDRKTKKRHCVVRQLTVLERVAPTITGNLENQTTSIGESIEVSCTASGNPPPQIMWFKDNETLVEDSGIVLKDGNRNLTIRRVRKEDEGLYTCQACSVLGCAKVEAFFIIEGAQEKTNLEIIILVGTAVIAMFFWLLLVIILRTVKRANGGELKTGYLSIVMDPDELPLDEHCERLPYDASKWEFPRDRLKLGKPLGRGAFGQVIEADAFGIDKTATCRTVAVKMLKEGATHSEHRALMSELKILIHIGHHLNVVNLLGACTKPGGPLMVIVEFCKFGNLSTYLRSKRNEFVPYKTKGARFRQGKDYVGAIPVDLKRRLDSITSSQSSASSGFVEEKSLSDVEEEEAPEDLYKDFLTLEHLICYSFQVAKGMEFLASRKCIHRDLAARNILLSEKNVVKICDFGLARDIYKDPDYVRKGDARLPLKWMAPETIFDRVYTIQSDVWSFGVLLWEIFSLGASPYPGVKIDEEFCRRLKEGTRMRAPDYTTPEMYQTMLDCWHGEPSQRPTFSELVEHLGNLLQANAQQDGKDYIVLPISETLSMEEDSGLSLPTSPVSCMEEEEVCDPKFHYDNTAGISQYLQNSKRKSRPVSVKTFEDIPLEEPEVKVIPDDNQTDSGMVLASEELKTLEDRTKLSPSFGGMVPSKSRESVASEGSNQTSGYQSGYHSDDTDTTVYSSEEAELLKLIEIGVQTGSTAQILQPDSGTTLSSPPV

IC50 (A-375)	IC50 [1]	IC50 (Aurora kinase A)	IC50 (HeLa)	IC50 [2]	IC50 (HCT-116)	IC50 [3]	Compound
550 nM	820 nM	590 nM	620 nM	4.6 nM	190 nM		CCNCc1cncc(/C=C/c2c[nH]nc2-c2nc3ccc(OC)cc3[nH]2)c1
3600 nM	1350 nM	> 100000 nM	3700 nM	110 nM	2500 nM		CCNC(=O)c1cncc(/C=C/c2c[nH]nc2-c2nc3ccc(OC)cc3[nH]2)c1
3100 nM	1280 nM	> 100000 nM	4400 nM	890 nM	3100 nM	> 100000 nM	COC(=O)c1cncc(/C=C/c2c[nH]nc2-c2nc3ccc(OC)cc3[nH]2)c1
	1700 nM	4200 nM		> 1000 nM		> 100000 nM	COc1ccc2nc(-c3n[nH]cc3/C=C/c3cncc(C#N)c3)[nH]c2c1
> 10000 nM	> 10000 nM	> 10000 nM	> 10000 nM	700 nM	70700 nM	> 100000 nM	N#Cc1c[nH]c(-c2n[nH]cc2/C=C/c2cccnc2)n1
860 nM	290 nM	> 10000 nM	460 nM	29 nM	190 nM		CN1CCN(c2ccc3nc(-c4n[nH]cc4/C=C/c4cccnc4)[nH]c3c2)CC1
47000 nM	29000 nM	120 nM	> 10000 nM	480 nM	24000 nM	> 100000 nM	FC(F)(F)c1c[nH]c(-c2n[nH]cc2/C=C/c2cccnc2)n1
7400 nM	10000 nM	> 10000 nM	3200 nM	18 nM	1700 nM	> 100000 nM	CCNCc1cncc(/C=C/c2c[nH]nc2-c2nc(C(F)(F)F)c[nH]2)c1
4300 nM	760 nM	550 nM	2800 nM	160 nM	3200 nM	> 10000 nM	COc1ccc2nc(-c3n[nH]cc3/C=C/c3cnccc3C)[nH]c2c1
5600 nM	3060 nM	300 nM	3600 nM	110 nM	2900 nM		FC(F)(F)c1c[nH]c(-c2n[nH]cc2/C=C/c2cncc3ccccc23)n1
910 nM	650 nM	400 nM	890 nM	47 nM	750 nM		COc1cncc(/C=C/c2c[nH]nc2-c2nc3ccc(OC)cc3[nH]2)c1
2500 nM	970 nM	510 nM	1800 nM	33 nM	2200 nM	> 10000 nM	COc1ccc2nc(-c3n[nH]cc3/C=C/c3cccnc3)[nH]c2c1
3000 nM	610 nM	530 nM	2800 nM	150 nM	2700 nM	> 100000 nM	COc1ccc2nc(-c3n[nH]cc3/C=C/c3cncc4ccccc34)[nH]c2c1
